# Read-outs that look alike come from different tables or passages of the source.
# What was measured:
# [1] = target: WT EZH2 (Homo sapiens (Human), UniProt Q15910); test: WT EZH2 nucleosome assay (10X SAM, high SAM conditions); type: biochemical; conditions: 15 uM SAM, Ki app from competitive inhibition fit
# Method: (§1) The genes for EZH2, EED, SUZ12, and RBBP4 proteins were cloned into pBacPAK9 vectors (Clontech). RBBP4 was FLAG tagged on the N-terminal end. The baculovirus expressions of these proteins were used to co-infect SF9 insect cells. Insect cell pellets were lysed in a buffer containing 25 mM Tris pH8.0, 300 mM NaCl, 0.5 mM TCEP, complete EDTA-free protease inhibitor (Roche), 0.1% NP-40. The supernatant from the lysate was incubated with FLAG® M2 antibody resin (Sigma). The resin was washed on the chromatography column and eluted with 0.2 mg/ml FLAG peptide. The elute was incubated with omnicleave nucleases (Epicentre Technologies) at 4° C. overnight, then concentrated and loaded onto a Superdex 200 (GE Healthcare) column. The Superdex 200 column was eluted with 25 mM Tris pH8.0, 150 mM NaCl, 0.5 mM TCEP. Fractions containing the PRC2 complex were pooled.
# (§2) A. Compound preparation • 1.
# (§3) B. Reagent preparation • 1. […] Dilute TCA to 20% in DI water
# (§4) C. Enzyme reaction • 1. […] Some compounds were tested under high SAM conditions.
# (§5) D. Data analysis • 1. IC50 values were determined by fitting the data to a 4-parameter IC50 equation using proprietary curve fitting software. • 2. For compounds tested under high SAM conditions, Ki^app values were obtained by fitting the dose response curve to a model for competitive inhibition using proprietary curve fitting software. Preparation of HeLa Oligonucleosomes: Reagents • Cell Pellet: 15 L HeLa S3 (Accelgen)+6 L HeLa S3 (in house) • Mnase (Worthington Biochemicals) Equipment • SW-28 Rotor • Dounce Homogenizer/B Pestle Buffers • Lysis: 20 mM Hepes pH 7.5, 0.25M Sucrose, 3 mM MgCl2, 0.5% Nonidet P-40, 0.5 mM TCEP, 1 Roche Protease Tablet • B: 20 mM Hepes pH7.5, 3 mM MgCl2, 0.5 mM EDTA, 0.5 mM TCEP, 1 Roche Protease Tablet • MSB: 20 mM Hepes pH7.5, 0.4 M NaCl, 1 mM EDTA, 5% v/v Glycerol, 0.5 mM TCEP, 0.2 mM PMSF • LSB: 20 mM Hepes pH7.5, 0.1M NaCl, 1 mM EDTA, 0.5 mM TCEP, 0.2 mM PMSF • NG: 20 mM Hepes pH7.5, 1 mM EDTA, 0.4 m NaCl, 0.2 mM PMSF, 0.5 mM TCEP • Storage: 20 mM Hepes pH7.5, 1 mM EDTA, 10% Glycerol, 0.2 mM PMSF, 0.5 mM TCEP Protocol
# [2] = target: EZH2 Mutant Y641N (Homo sapiens (Human), UniProt Q15910, Y641N); test: EZH2 Mutant Y641N nucleosome assay; type: biochemical; conditions: PRC2 4-protein complex 6 nM, 1.5 μM SAM, HeLa oligonucleosomes
# Method: as §1, §2, §3, §4, §5
# [3] = read-out: WT EZH2 Nucleosome assay (10X SAM) Ki
# [4] = read-out: EZH2 Mutant Y641N Nucleosome assay IC50
# [5] = EZH2 Mutant Y641N Nucleosome assay IC50 (μM)
# [6] = WT EZH2 Nucleosome assay (10X SAM) Ki (μM)
# EZH2 Mutant Y641N, sequence (Q15910 whole entry Y641N, looked up): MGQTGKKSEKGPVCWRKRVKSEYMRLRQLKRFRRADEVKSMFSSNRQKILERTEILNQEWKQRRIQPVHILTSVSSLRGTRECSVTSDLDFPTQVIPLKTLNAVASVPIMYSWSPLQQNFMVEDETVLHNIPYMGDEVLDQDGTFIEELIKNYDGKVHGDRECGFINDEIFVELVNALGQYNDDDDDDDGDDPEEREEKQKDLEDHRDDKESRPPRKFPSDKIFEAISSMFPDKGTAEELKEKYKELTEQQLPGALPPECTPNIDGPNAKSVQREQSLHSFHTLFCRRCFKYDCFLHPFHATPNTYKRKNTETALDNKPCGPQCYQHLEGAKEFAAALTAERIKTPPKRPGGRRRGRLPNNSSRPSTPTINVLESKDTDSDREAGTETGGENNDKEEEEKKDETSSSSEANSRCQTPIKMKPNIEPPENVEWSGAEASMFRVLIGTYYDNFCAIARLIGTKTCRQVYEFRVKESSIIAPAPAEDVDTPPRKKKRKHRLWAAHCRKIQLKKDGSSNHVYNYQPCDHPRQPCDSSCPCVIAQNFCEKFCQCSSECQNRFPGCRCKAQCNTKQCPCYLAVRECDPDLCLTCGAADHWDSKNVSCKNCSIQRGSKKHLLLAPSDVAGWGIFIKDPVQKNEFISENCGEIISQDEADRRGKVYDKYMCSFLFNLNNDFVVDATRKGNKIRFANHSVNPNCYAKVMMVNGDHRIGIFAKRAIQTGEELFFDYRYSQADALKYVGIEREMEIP
# EZH2 Mutant Y641N, sequence (O75530 whole entry partner, looked up): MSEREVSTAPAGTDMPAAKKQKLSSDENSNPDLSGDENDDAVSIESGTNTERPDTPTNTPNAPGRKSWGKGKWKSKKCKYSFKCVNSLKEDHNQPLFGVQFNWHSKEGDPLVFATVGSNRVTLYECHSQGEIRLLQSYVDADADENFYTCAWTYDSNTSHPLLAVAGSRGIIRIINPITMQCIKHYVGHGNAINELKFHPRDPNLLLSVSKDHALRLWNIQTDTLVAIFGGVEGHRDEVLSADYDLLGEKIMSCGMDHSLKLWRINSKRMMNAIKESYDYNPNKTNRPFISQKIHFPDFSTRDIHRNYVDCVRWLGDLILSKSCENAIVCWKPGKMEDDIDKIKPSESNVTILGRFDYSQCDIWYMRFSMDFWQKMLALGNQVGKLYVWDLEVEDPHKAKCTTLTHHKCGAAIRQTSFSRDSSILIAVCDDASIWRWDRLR
# EZH2 Mutant Y641N, sequence (Q15022 whole entry partner, looked up): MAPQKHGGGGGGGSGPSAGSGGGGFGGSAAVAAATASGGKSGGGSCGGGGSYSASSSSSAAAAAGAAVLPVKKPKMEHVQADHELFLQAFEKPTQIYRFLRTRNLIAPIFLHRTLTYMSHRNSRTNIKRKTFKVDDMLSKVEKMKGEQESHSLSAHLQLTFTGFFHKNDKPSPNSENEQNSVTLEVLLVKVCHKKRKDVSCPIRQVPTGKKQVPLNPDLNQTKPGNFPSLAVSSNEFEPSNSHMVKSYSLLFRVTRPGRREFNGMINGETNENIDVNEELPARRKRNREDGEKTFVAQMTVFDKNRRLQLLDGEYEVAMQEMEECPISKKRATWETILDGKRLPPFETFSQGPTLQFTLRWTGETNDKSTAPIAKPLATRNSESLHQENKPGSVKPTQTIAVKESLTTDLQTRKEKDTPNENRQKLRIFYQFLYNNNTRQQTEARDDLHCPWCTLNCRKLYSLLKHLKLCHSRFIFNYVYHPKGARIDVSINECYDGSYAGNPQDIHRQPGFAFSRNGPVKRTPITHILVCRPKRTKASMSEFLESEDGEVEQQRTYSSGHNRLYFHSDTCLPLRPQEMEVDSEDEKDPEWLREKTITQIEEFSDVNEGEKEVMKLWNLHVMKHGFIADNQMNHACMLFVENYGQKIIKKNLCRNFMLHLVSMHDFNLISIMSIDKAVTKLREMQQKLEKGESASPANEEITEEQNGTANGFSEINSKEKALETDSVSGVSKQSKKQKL
# EZH2 Mutant Y641N, sequence (Q09028 whole entry partner, looked up): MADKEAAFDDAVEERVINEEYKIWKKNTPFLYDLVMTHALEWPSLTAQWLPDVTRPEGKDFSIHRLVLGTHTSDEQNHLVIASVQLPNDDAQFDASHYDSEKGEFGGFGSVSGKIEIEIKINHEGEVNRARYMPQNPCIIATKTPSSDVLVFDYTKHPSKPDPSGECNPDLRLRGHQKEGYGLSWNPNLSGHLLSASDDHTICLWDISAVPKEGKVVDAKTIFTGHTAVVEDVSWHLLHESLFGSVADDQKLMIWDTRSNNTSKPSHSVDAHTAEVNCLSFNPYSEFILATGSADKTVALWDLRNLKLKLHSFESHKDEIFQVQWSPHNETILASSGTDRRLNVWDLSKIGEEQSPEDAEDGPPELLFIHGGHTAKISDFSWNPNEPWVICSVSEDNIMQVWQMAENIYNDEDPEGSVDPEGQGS
# WT EZH2, sequence (Q15910 whole entry, looked up): as the sequence (Q15910 whole entry Y641N, looked up) above, with N641Y counted along it
# WT EZH2, sequence (O75530 whole entry partner, looked up): as the sequence (O75530 whole entry partner, looked up) above
# WT EZH2, sequence (Q15022 whole entry partner, looked up): as the sequence (Q15022 whole entry partner, looked up) above
# WT EZH2, sequence (Q09028 whole entry partner, looked up): as the sequence (Q09028 whole entry partner, looked up) above
Compound,"Ki [1, 3] [µM]","IC50 [2, 4] [µM]","IC50 [2, 5] [µM]","Ki [1, 6] [µM]"
COC(C(C)=O)c1cc(Cl)c2c(c1Cl)C(=O)N(Cc1c(C)cc(C)[nH]c1=O)CC2 (racemic) [Example 49],0.215,0.996,,
Cc1cc(C)c(CN2CCc3c(Cl)cc(C(CO)N4CCCC4)c(Cl)c3C2=O)c(=O)[nH]1 (racemic) [Example 57],0.406,1.35,,
Cc1cc(C)c(CN2CCc3c(Cl)cc(C(CO)N4CCC(F)(F)C4)c(Cl)c3C2=O)c(=O)[nH]1 (racemic) [Example 59],0.025,0.155,,
Cc1cc(C)c(CN2CCc3c(Cl)cc(C(CO)N4CCOCC4)c(Cl)c3C2=O)c(=O)[nH]1 (racemic) [Example 60],0.031,0.18,,
Cc1cc(C)c(CN2CCc3ccc([C@@H](CO)[C@@H]4CCOC4)c(Cl)c3C2=O)c(=O)[nH]1 (racemic) [Example 64],0.007,0.043,,
Cc1cc(C)c(CN2CCc3ccc([C@H](CO)[C@@H]4CCOC4)c(Cl)c3C2=O)c(=O)[nH]1 (racemic) [Example 65],0.006,0.047,,
[2H]C([2H])([2H])OC(c1cc(Cl)c2c(c1Cl)C(=O)N(Cc1c(C)cc(C)[nH]c1=O)CC2)C1CCN(C(=O)CO)CC1 (racemic) [Example 70],,,0.006,
"Cc1cc(C)c(CN2CCc3c(Cl)cc(C(C)N4CCOCC4)c(Cl)c3C2=O)c(=O)[nH]1 (racemic) [Example 89, (±)-5,8-dichloro-2-[(4,6-dimethyl-2-oxo-1,2-dihydropyridin-3-yl)methyl]-7-[1-(morpholin-4-yl)ethyl]-3,4-dihydroisoquinolin-1(2H)-one]",0.008,0.088,,
COC(c1cc(C)c2c(c1Cl)C(=O)N(Cc1c(C)cc(C)[nH]c1=O)CC2)C1CNC1 (racemic) [Example 178],0.003,0.02,,
Cc1cc(C)c(CN2CCc3c(Cl)cc(C(C)N4CCN(C)CC4)c(Cl)c3C2=O)c(=O)[nH]1 (racemic) [Example 202],0.016,0.207,,
Cc1cc(C)c(CN2CCc3c(Cl)cc(C(C)N4CCNCC4)c(Cl)c3C2=O)c(=O)[nH]1 (racemic) [Example 205],0.0007,0.008,,
"Cc1cc(C)c(CN2CCc3c(Cl)cc(C(CO)N4CC[C@@H](F)C4)c(Cl)c3C2=O)c(=O)[nH]1 (single isomer, unassigned) [Example 6]",0.019,0.136,,
"Cc1cc(C)c(CN2CCc3c(Cl)cc(C(CO)N4CC[C@@H](F)C4)c(Cl)c3C2=O)c(=O)[nH]1 (single isomer, unassigned) [Example 7]",0.171,1.62,,
"CCC(OC)c1cc(Cl)c2c(c1Cl)C(=O)N(Cc1c(C)cc(C)[nH]c1=O)CC2 (single isomer, unassigned) [Example 15, 5,8-dichloro-2-[(4,6-dimethyl-2-oxo-1,2-dihydropyridin-3-yl)methyl]-7-(1-methoxypropyl)-3,4-dihydroisoquinolin-1(2H)-one]",,,0.019,0.003
"CCC(OC)c1cc(Cl)c2c(c1Cl)C(=O)N(Cc1c(C)cc(C)[nH]c1=O)CC2 (single isomer, unassigned) [Example 16, 5,8-dichloro-2-[(4,6-dimethyl-2-oxo-1,2-dihydropyridin-3-yl)methyl]-7-(1-methoxypropyl)-3,4-dihydroisoquinolin-1(2H)-one]",,,0.04,0.004
"COC(c1cc(Cl)c2c(c1Cl)C(=O)N(Cc1c(C)cc(C)[nH]c1=O)CC2)C1CCOCC1 (single isomer, unassigned) [Example 50]",0.077,0.129,,
"COC(c1cc(Cl)c2c(c1Cl)C(=O)N(Cc1c(C)cc(C)[nH]c1=O)CC2)C1CCOCC1 (single isomer, unassigned) [Example 51]",,0.002,,

Compound,"Ki [1, 3] [µM]","IC50 [2, 4] [µM]","IC50 [2, 5] [µM]","Ki [1, 6] [µM]"
"COC(c1cc(Cl)c2c(c1Cl)C(=O)N(Cc1c(C)cc(C)[nH]c1=O)CC2)C1(O)CCOCC1 (single isomer, unassigned) [Example 52]",0.298,1.04,,
"COC(c1cc(Cl)c2c(c1Cl)C(=O)N(Cc1c(C)cc(C)[nH]c1=O)CC2)C1(O)CCOCC1 (single isomer, unassigned) [Example 53]",0.001,0.017,,
"Cc1cc(C)c(CN2CCc3c(Cl)cc([C@@H](CC#N)[C@@H]4CCOC4)c(Cl)c3C2=O)c(=O)[nH]1 (single isomer, unassigned) [Example 54]",0.004,0.012,,
"Cc1cc(OC(F)F)c(CN2CCc3c(Cl)cc(C(CO)C4CCOCC4)c(Cl)c3C2=O)c(=O)[nH]1 (single isomer, unassigned) [Example 56]",,0.004,,
"COC(c1cc(Cl)c2c(c1Cl)C(=O)N(Cc1c(C)cc(C)[nH]c1=O)CC2)C1CCN(C(=O)CC#N)CC1 (single isomer, unassigned) [Example 61]",0.031,0.127,,
"Cc1cc(C)c(CN2CCc3c(Cl)cc(C(CO)N4CC[C@H](F)C4)c(Cl)c3C2=O)c(=O)[nH]1 (single isomer, unassigned) [Example 62]",0.035,0.262,,
"Cc1cc(C)c(CN2CCc3c(Cl)cc(C(CO)N4CC[C@H](F)C4)c(Cl)c3C2=O)c(=O)[nH]1 (single isomer, unassigned) [Example 63]",0.528,4.1,,
"Cc1cc(C)c(CN2CCc3c(Cl)cc(C(CO)N4CCC(F)(F)C4)c(Cl)c3C2=O)c(=O)[nH]1 (single isomer, unassigned) [Example 66]",0.009,0.081,,
"Cc1cc(C)c(CN2CCc3c(Cl)cc(C(CO)N4CCC(F)(F)C4)c(Cl)c3C2=O)c(=O)[nH]1 (single isomer, unassigned) [Example 67]",1.6,19.5,,
"Cc1cc(C)c(CN2CCc3c(Cl)cc(C(CO)N4CCOCC4)c(Cl)c3C2=O)c(=O)[nH]1 (single isomer, unassigned) [Example 68]",0.007,0.074,,
"Cc1cc(C)c(CN2CCc3c(Cl)cc(C(CO)N4CCOCC4)c(Cl)c3C2=O)c(=O)[nH]1 (single isomer, unassigned) [Example 69]",0.417,4.31,,
"COC(c1cc(Cl)c2c(c1Cl)C(=O)N(Cc1c(C)cc(C)[nH]c1=O)CC2)C1CCN(C(=O)CC#N)CC1 (single isomer, unassigned) [Example 71]",,0.003,,
"COC(c1cc(Cl)c2c(c1Cl)C(=O)N(Cc1c(C)cc(C)[nH]c1=O)CC2)C1CCN(C=O)CC1 (single isomer, unassigned) [Example 72]",0.041,0.128,,
"COC(c1cc(Cl)c2c(c1Cl)C(=O)N(Cc1c(C)cc(C)[nH]c1=O)CC2)C1CCN(C=O)CC1 (single isomer, unassigned) [Example 73]",,0.002,,
"COc1cc(C)[nH]c(=O)c1CN1CCc2c(C)cc([C@H](OC)[C@H]3CCOC3)c(Cl)c2C1=O (single isomer, unassigned) [Example 84, 8-chloro-2-[(4-methoxy-6-methyl-2-oxo-1,2-dihydropyridin-3-yl)methyl]-7-{(R*)-methoxy[(3S*)-tetrahydrofuran-3-yl]methyl}-5-methyl-3,4-dihydroisoquinolin-1(2H)-one]",0.0002,0.002,,
"COc1cc(C)[nH]c(=O)c1CN1CCc2c(C)cc([C@@H](OC)[C@@H]3CCOC3)c(Cl)c2C1=O (single isomer, unassigned) [Example 85, 8-chloro-2-[(4-methoxy-6-methyl-2-oxo-1,2-dihydropyridin-3-yl)methyl]-7-{(S*)-methoxy[(3R*)-tetrahydrofuran-3-yl]methyl}-5-methyl-3,4-dihydroisoquinolin-1(2H)-one]",0.052,0.238,,
"Cc1cc(C)c(CN2CCc3c(Cl)cc([C@@H](CO)[C@@H]4CCOC4)c(Cl)c3C2=O)c(=O)[nH]1 [Example 4, 5,8-dichloro-2-[(4,6-dimethyl-2-oxo-1,2-dihydropyridin-3-yl)methyl]-7-{(1S)-2-hydroxy-1-[(3S)-tetrahydrofuran-3-yl]ethyl}-3,4-dihydroisoquinolin-1(2H)-one]",,1.95,,
